Laboratory results published in patent publication US12083181B2, “Bi-functional molecules to degrade circulating proteins” (Yale University, priority 2018, dated 2024).

Assays:
rhuMIF [1] = molecular target: T1, rhuMIF (Homo sapiens, UniProt P14174); assay: Depletion of human MIF from supernatant of cultured HepG2 cells, sandwich ELISA; assay type: cell-based; details: 100 nM huMIF, after 24 hours
T1 sequence (P14174 2-115 limits assumed): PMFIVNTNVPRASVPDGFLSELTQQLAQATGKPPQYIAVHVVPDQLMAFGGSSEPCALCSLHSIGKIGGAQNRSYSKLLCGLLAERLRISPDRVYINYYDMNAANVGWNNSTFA
Description: In an experiment the results of which are presented in FIG. 3, bifunctional molecules were able to deplete human MIF from the supernatant of culture HepG2 cells. Briefly, human MIF (100 nM) was added to cell culture media in the presence of negative control MIF inhibitor 3w as well as bifunctional molecules MIF-NVS-PEGn-GN3, MIF-GN3, MIF-PEGn-Gn3, MIF-AcF3-1, MIF-AcF3-2, and MIF-AcF3-3. All molecules utilized a known MIF-binding ligand. Experiments were performed in 96 well plates (approximate surface area 0.3 cm^2). HepG2 cells were grown to 90% confluency in RPMI media, then washed with PBS (2×) and treated with serum-free media (optimem+0.1% BSA, +Pen/Strep) containing 100 nM huMIF (Cayman Chemical) and compounds (when applicable). Compounds were diluted from 1 mM stock solutions in DMSO. After 24 hours, a sample of the supernatant (2 uL) was collected, diluted 1:100, and analyzed for MIF content by sandwich ELISA (and incubated for 24 hours in the presence or absence of compound). Remaining MIF levels were determined by sandwich ELISA (biolegend monoclonal anti-MIF and biotinylated anti-MIF antibodies). Data represents the average of at least 3 biological replicates, and error bars represent a standard deviation. After 24 hours, up to 95.3% of the MIF had been depleted from cell culture media (in the case of MIF-AcF3-3).

[2] = tested on: PC3 human prostate cancer cells; assay: Mouse model of prostate cancer, tumor growth; assay type: in vivo; details: nude mice engrafted with PC3 cells, treatment initiated immediately
Excerpt: In this experiment, nude mice were engrafted with PC3 human prostate cancer cells. Treatment was then initiated immediately with either a non-bifunctional MIF inhibitor (3w), an anti-MIF antibody, or MIF-GN3.

rhuMIF [3] = molecular target: T1, rhuMIF; assay: Depletion of injected human MIF from mice, serum sandwich ELISA; assay type: in vivo; details: nude mice injected with 5 μg recombinant human MIF
Description: Human MIF has a half-life of approximately 40 minutes in mice. In this experiment, human recombinant MIF (Cayman chemical) was co-injected into mice with an anti-DNP IgG, which was used as an injection positive control. In particular, nude mice were injected with 5 μg recombinant human MIF and 200 μg anti-DNP IgG as an injection control (FIG. 4). MIF-GN3 was then injected at the concentration shown and blood drawn every twenty minutes over the course of two hours. Serum was diluted 1:100 and analyzed for MIF content by sandwich ELISA (biolegend monoclonal anti-MIF and biotinylated anti-MIF antibodies).

rhuMIF [4] = molecular target: T1, rhuMIF; assay: Trafficking of MIF internalized by HepG2 cells to lysosomes, immunofluorescence; assay type: cell-based; parameters: purchased Cayman Chemical; details: 100 nM rhuMIF, 200 nM compound, 12 hours
Description: In this experiment, cells were incubated with rhuMIF (Cayman) at a concentration of 100 nM with 200 nM MIF-GN3.

MIF depleted from cell culture media (rhuMIF [1])	serum huMIF levels (rhuMIF [3]; blood drawn over two hours, PBS control up to 150 ng/ml)	decrease in huMIF levels (rhuMIF [3]; versus PBS)	trafficking of internalized MIF to lysosomes (rhuMIF [4])	SMILES	tumor growth [2]
95.3%	–	–	–	O=C(CCOCC(COCCC(=O)NCCOCCOCCOCCOC[C@@]12CO[C@@H](O1)[C@H](NC(=O)C(F)(F)F)[C@@H](O)[C@H]2O)(COCCC(=O)NCCOCCOCCOCCOC[C@@]12CO[C@@H](O1)[C@H](NC(=O)C(F)(F)F)[C@@H](O)[C@H]2O)NC(=O)CCCOc1ccc2nc(-c3cn(-c4ccc(O)c(F)c4)nn3)ccc2c1)NCCOCCOCCOCCOC[C@@]12CO[C@@H](O1)[C@H](NC(=O)C(F)(F)F)[C@@H](O)[C@H]2O [MIF-AcF3-3]	–
–	up to 20 ng/ml	substantial decrease in huMIF levels	evidencing internalization in lysosomes	CC(=O)N[C@H]1[C@H](OCCOCCOCCNC(=O)CCOCC(COCCC(=O)NCCOCCOCCO[C@@H]2O[C@H](CO)[C@H](O)[C@H](O)[C@H]2NC(C)=O)(COCCC(=O)NCCOCCOCCO[C@@H]2O[C@H](CO)[C@H](O)[C@H](O)[C@H]2NC(C)=O)NC(=O)CNC(=O)CCCOc2ccc3nc(-c4cn(-c5ccc(O)c(F)c5)nn4)ccc3c2)O[C@H](CO)[C@H](O)[C@@H]1O [MIF-GN3]	showed a slowing of tumor growth
